Inconclusive results and toxic doses are left out. Cut-off read from the data, not from the text of the source: active = T/C of 150% or more; inactive = T/C below 125%.
Test system: L1210 leukemia ip in BDF1 mice, survival T/C
Assay: NCI In Vivo Anticancer Drug Screen. Data for tumor model L1210 Leukemia (intraperitoneal) in B6D2F1 (BDF1) mice
Conditions: endpoint: mean survival time, higher = longer survival
Outline: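 Survival endpoint. Drug-treated group vs vehicle group, expressed as T divided by C. Tumor passaged by transplantation.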

[1] = dose: 100.0 mg/kg/injection, schedule: Q04DX003 (ip), vehicle: carboxymethylcellulose (CMC)
[2] = dose: 200.0 mg/kg/injection, schedule: Q04DX003 (ip), vehicle: carboxymethylcellulose (CMC)
[3] = dose: 400.0 mg/kg/injection, schedule: Q04DX003 (ip), vehicle: carboxymethylcellulose (CMC)
[4] = dose: 100.0 mg/kg/injection, schedule: Q01DX009 (ip), vehicle: Klucel (hydroxypropylcellulose) (HPC)
[5] = dose: 200.0 mg/kg/injection, schedule: Q01DX009 (ip), vehicle: Klucel (hydroxypropylcellulose) (HPC)
[6] = dose: 400.0 mg/kg/injection, schedule: Q01DX009 (ip), vehicle: Klucel (hydroxypropylcellulose) (HPC)
[7] = dose: 100.0 mg/kg/injection, schedule: Q04DX003 (ip), vehicle: saline
[8] = dose: 200.0 mg/kg/injection, schedule: Q04DX003 (ip), vehicle: saline
[9] = dose: 400.0 mg/kg/injection, schedule: Q04DX003 (ip), vehicle: saline

Measured: T/C

O=S(=O)(c1ccc(NC(=S)NC(Cc2ccccc2)c2ccccc2)cc1)N1CCCCC1 (configuration not stated)
inactive: [1] 91 % of control | [2] 89 % of control | [3] 93 % of control

Nc1ccc2nc(NCCO)c3ccccc3c2c1
inactive: [4] 107 % of control | dose: 100.0 mg/kg/injection, schedule: Q04DX003 (ip), vehicle: Klucel (hydroxypropylcellulose) (HPC) 104 % of control | [5] 114 % of control | dose: 200.0 mg/kg/injection, schedule: Q04DX003 (ip), vehicle: Klucel (hydroxypropylcellulose) (HPC) 104 % of control | [6] 88 % of control | dose: 400.0 mg/kg/injection, schedule: Q04DX003 (ip), vehicle: Klucel (hydroxypropylcellulose) (HPC) 104 % of control

CNS(=O)(=O)c1ccc(C)cc1
inactive: [4] 104 % of control | [7] 102 % of control | [5] 108 % of control | [8] 100 % of control | [6] 108 % of control | [9] 122 % of control

CCOC(=O)NC#N (tested in a mixture with another compound)
inactive: dose: 10.0 mg/kg/injection, schedule: Q01DX001 (ip), vehicle: saline 98 % of control | dose: 20.0 mg/kg/injection, schedule: Q01DX001 (ip), vehicle: saline 102 % of control | dose: 40.0 mg/kg/injection, schedule: Q01DX001 (ip), vehicle: saline 102 % of control

COC(=O)C1(C)COP(=O)(N2CC2)OC1 (configuration not stated)
inactive: dose: 100.0 mg/kg/injection, schedule: Q01DX001 (ip), vehicle: saline 101 % of control | dose: 200.0 mg/kg/injection, schedule: Q01DX001 (ip), vehicle: saline 106 % of control | dose: 400.0 mg/kg/injection, schedule: Q01DX001 (ip), vehicle: saline 95 % of control

CC1=Cc2ccc(C)cc2C(=O)C1=O
inactive: dose: 6.25 mg/kg/injection, schedule: Q04DX003 (ip), vehicle: saline with Tween-80 94 % of control

COc1cc2c(cc1OC)C(CCc1ccc(Cl)cc1)N(C)CC2 (configuration not stated)
inactive: dose: 12.5 mg/kg/injection, schedule: Q01DX009 (ip), vehicle: Klucel (hydroxypropylcellulose) (HPC) 113 % of control | dose: 25.0 mg/kg/injection, schedule: Q01DX009 (ip), vehicle: Klucel (hydroxypropylcellulose) (HPC) 108 % of control | dose: 50.0 mg/kg/injection, schedule: Q01DX009 (ip), vehicle: Klucel (hydroxypropylcellulose) (HPC) 104 % of control | [4] 116 % of control | [5] 113 % of control

COc1ccc(/C=C(\C#N)c2ccc(C)cc2)cc1OC
inactive: dose: 100.0 mg/kg/injection, schedule: Q04DX003 (ip), vehicle: saline with Tween-80 102 % of control | dose: 200.0 mg/kg/injection, schedule: Q04DX003 (ip), vehicle: saline with Tween-80 100 % of control | dose: 400.0 mg/kg/injection, schedule: Q04DX003 (ip), vehicle: saline with Tween-80 100 % of control

CCN(CC)CC(=O)NCC(CCN(C)C)(CCN(C)C)c1cccc2ccccc12
inactive: dose: 25.0 mg/kg/injection, schedule: Q04DX002 (ip), vehicle: saline with Tween-80 115 % of control | dose: 50.0 mg/kg/injection, schedule: Q04DX002 (ip), vehicle: saline with Tween-80 96 % of control | dose: 100.0 mg/kg/injection, schedule: Q01DX009 (ip), vehicle: saline with Tween-80 93 % of control | dose: 100.0 mg/kg/injection, schedule: Q04DX002 (ip), vehicle: saline with Tween-80 107 % of control

O=c1[nH]c(=O)c2nc3cc(Br)cnc3nc2[nH]1
inactive: [7] 95 % of control | [8] 102 % of control | [9] 103 % of control

NC(Cc1cc(I)c(O)c(I)c1)C(=O)O (configuration not stated)
inactive: dose: 12.5 mg/kg/injection, schedule: Q01DX009 (ip), vehicle: carboxymethylcellulose (CMC) 101 % of control | dose: 25.0 mg/kg/injection, schedule: Q01DX009 (ip), vehicle: carboxymethylcellulose (CMC) 99 % of control | dose: 25.0 mg/kg/injection, schedule: Q01DX009 (ip), vehicle: saline 92 % of control | dose: 25.0 mg/kg/injection, schedule: Q04DX003 (ip), vehicle: carboxymethylcellulose (CMC) 101 % of control | dose: 50.0 mg/kg/injection, schedule: Q01DX009 (ip), vehicle: carboxymethylcellulose (CMC) 90 % of control | dose: 50.0 mg/kg/injection, schedule: Q01DX009 (ip), vehicle: saline 112 % of control | dose: 50.0 mg/kg/injection, schedule: Q04DX003 (ip), vehicle: carboxymethylcellulose (CMC) 100 % of control | dose: 100.0 mg/kg/injection, schedule: Q01DX009 (ip), vehicle: carboxymethylcellulose (CMC) 99 % of control | dose: 100.0 mg/kg/injection, schedule: Q01DX009 (ip), vehicle: saline 108 % of control | [1] 96 % of control | dose: 200.0 mg/kg/injection, schedule: Q01DX009 (ip), vehicle: carboxymethylcellulose (CMC) 91 % of control | dose: 200.0 mg/kg/injection, schedule: Q01DX009 (ip), vehicle: saline 108 % of control | [2] 92 % of control | dose: 400.0 mg/kg/injection, schedule: Q01DX009 (ip), vehicle: saline 95 % of control | [3] 100 % of control

Source: PubChem BioAssay AID248 (DTP/NCI, 2004)
